These results are taken from US20260131015A1, “NEODEGRADER CONJUGATES” (priority 2022, published 2026).

Series [1] has as its system IMR32 human neuroblastoma (NB) cell line. In words: In Vitro Cytotoxicity Assay I (WST-8 cell viability). The settings on record: IMR32, 120 hours, WST-8, Table 3. The class given is cell-based. The procedure: (§1) The cell viability was determined by colorimetric WST-8 assay (Dojindo Molecular Technologies, Inc.). The OD450 value was read using the SpectraMax M5 plate reader. The values were normalized for each cell line, and IC50 values were calculated using the Prism software.

In series [2] the test system is NCI-H526 human SCLC cell line. The description is as above. The class given is cell-based. Particulars: NCI-H526, 120 hours, WST-8, Table 3. As for the experimental part: as §1
(In general: Tetrazolium assays rely on reduction of a dye to a coloured formazan, in cell work by metabolically active cells.)

Series [3] relates to NCI-H146 SCLC cell line. In words: In Vitro Cytotoxicity Assay II (WST-8 cell viability). The class given is cell-based. The settings on record: NCI-H146, 120 hours, WST-8, Table 4. The procedure:
(§2) Cell lines were harvested and plated into 96-well plates. […] The cell viability was determined by colorimetric WST-8 assay (Dojindo Molecular Technologies, Inc.). The OD450 value was read using the SpectraMax M5 plate reader. The values were normalized for each cell line, and IC50s were calculated using the Prism software.

In series [4] the test system is NCI-H510A SCLC cell line. The description is as above. It counts as cell-based. The settings on record: 120 hours, WST-8, Table 4. The procedure:
as §2

Series [5] concerns NCI-H82 SCLC cell line. The series is described as above. It counts as cell-based. The settings on record: NCI-H82, 120 hours, WST-8, Table 4. The procedure: as §2
In series [6] the test system is NCI-H1048 SCLC cell line. The description is as above. The settings on record: NCI-H1048, 120 hours, WST-8, Table 4. The class given is cell-based, human. The procedure: as §2
For series [7], the system named is NCI-H526 SCLC cell line. Described as above. The class given is cell-based, human. Particulars: NCI-H526, 120 hours, WST-8, Table 4. The procedure: as §2
For series [8], the system named is IMR32 human neuroblastoma (NB) cell line. As to the kind of experiment: In Vitro Cytotoxicity Assay III (WST-8 cell viability). The settings on record: IMR32, 120 hours, WST-8, Table 5. The class given is cell-based. As for the experimental part:
(§3) Cell lines were harvested and plated into 96-well plates. […] The cell viability was determined by colorimetric WST-8 assay (Dojindo Molecular Technologies, Inc.). The OD450 value was read using the SpectraMax M5 plate reader. The values were normalized for each cell line, and IC50 values were calculated using the Prism software.

Series [9] concerns NCI-H526 human SCLC cell line. The series is described as above. The settings on record: NCI-H526, 120 hours, WST-8, Table 5. It counts as cell-based. The procedure:
as §3

As for `Cc1ccc(NC(=O)NCc2ccc3c(c2)CN(C2CCC(=O)NC2=O)C3=O)cc1Cl` (stereo not drawn) [CC-885, reference compound], the IC50 (in general, the concentration that inhibits the measured activity by half) was determined as 0.145 nM in series [1]; 0.118 nM in series [2]; 0.527 nM in series [3]; 0.23 nM in series [4]; 0.603 nM in [5]; 0.0409 nM in [6]. Further, the values for the IC50 in series [7], in [8] and in series [9] were 0.177 nM, 0.0994 nM and 0.128 nM, respectively.
